# Assay results: patent publication US6737383B1, “Herbicidal oxadiazolidines” (priority 1999, dated 2004)
# Columns and labels:
# blackgrass = assay: Test B pre/postemergence blackgrass; assay type: in vivo, Alopecurus myosuroides
# Procedure, shortened: (§1)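 Test chemicals in a non-phytotoxic solvent mixture with surfactant were sprayed preemergence onto planted seeds and postemergence onto plants 2 to 18 cm tall (1- to 4-leaf stage). After twelve to sixteen days in a greenhouse, injury was visually rated against untreated controls from 0 (no effect) to 10 (complete control).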
# purple nutsedge = assay: Test B pre/postemergence purple nutsedge; assay type: in vivo, Cyperus rotundus
# Procedure, shortened: as §1
# sugar beet = assay: Test B pre/postemergence sugar beet; assay type: in vivo, Beta vulgaris
# Procedure, shortened: as §1
# velvetleaf = assay: Test B pre/postemergence velvetleaf; assay type: in vivo, Abutilon theophrasti
# Procedure, shortened: as §1
# smallflower flatsedge = assay: Test B flood test smallflower flatsedge; assay type: in vivo, Cyperus difformis
# Procedure, shortened: (§2)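 Flood test on plants grown to the 2-leaf stage; treated plants kept in greenhouse twelve to sixteen days, then visually rated against controls on a 0 (no effect) to 10 (complete control) scale.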
# pigweed = assay: Test B pre/postemergence pigweed; assay type: in vivo, Amaranthus retroflexus
# Procedure, shortened: as §1
# wheat = assay: Test B pre/postemergence wheat; assay type: in vivo, Triticum aestivum
# Procedure, shortened: as §1
# cocklebur = assay: Test B pre/postemergence cocklebur; assay type: in vivo, Xanthium strumarium
# Procedure, shortened: as §1
# crabgrass = assay: Test B pre/postemergence crabgrass; assay type: in vivo, Digitaria sanguinalis
# Procedure, shortened: as §1
# soybean = assay: Test B pre/postemergence soybean; assay type: in vivo, Glycine max
# Procedure, shortened: as §1
# rice = assay: Test B flood test rice; assay type: in vivo, Oryza sativa
# Procedure, shortened: as §2
# bedstraw = assay: Test B pre/postemergence bedstraw; assay type: in vivo, Galium aparine; settings: Postemergence
# Procedure, shortened: as §1
# wild oat = assay: Test B pre/postemergence wild oat; assay type: in vivo, Avena fatua
# Procedure, shortened: as §1
# giant foxtail = assay: Test B pre/postemergence giant foxtail; assay type: in vivo, Setaria faberii
# Procedure, shortened: as §1
# rape = assay: Test B pre/postemergence rape; assay type: in vivo, Brassica napus
# Procedure, shortened: as §1
# duck salad = assay: Test B flood test duck salad; assay type: in vivo, Heteranthera limosa
# Procedure, shortened: as §2
# corn = assay: Test B pre/postemergence corn; assay type: in vivo, Zea mays
# Procedure, shortened: as §1
# morningglory = assay: Test B pre/postemergence morningglory; assay type: in vivo, Ipomoea hederacea
# Procedure, shortened: as §1
# bamyardgrass = assay: Test B flood test barnyardgrass; assay type: in vivo, Echinochloa crus-galli
# Procedure, shortened: as §2
# surinam grass = assay: Test B pre/postemergence surinam grass; assay type: in vivo, Brachiaria decumbens
# Procedure, shortened: as §1
# [1] = Postemergence, Rate 125 g/ha, scale 0 to 10, 0 is no effect, 10 is complete control
# [2] = Postemergence, Rate 250 g/ha, scale 0 to 10
# [3] = Postemergence, Rate 500 g/ha, scale 0 to 10, 0 is no effect, 10 is complete control
# [4] = Preemergence, Rate 62 g/ha, scale of 0 to 10 where 0 is no effect and 10 is complete control
# [5] = Preemergence, Rate 125 g/ha, scale 0 to 10, 0 is no effect, 10 is complete control
# [6] = Preemergence, Rate 250 g/ha, scale 0 to 10, 0 is no effect, 10 is complete control
# [7] = Preemergence, Rate 500 g/ha, scale 0 to 10, 0 is no effect, 10 is complete control
# [8] = Rate 62 g/ha, Postemergence, scale 0 to 10 (0 no effect, 10 complete control)
# [9] = Rate 62 g/ha, flood test species, Pre-emergence, visual evaluation after twelve to sixteen days
# [10] = Rate 125 g/ha, under heading Pre-emergence, flood test species, visual evaluation after twelve to sixteen days
# [11] = Rate 250 g/ha, Pre-emergence (flood test species), scale 0 to 10, 0 is no effect, 10 is complete control
# [12] = Rate 500 g/ha, Pre-emergence section of Table B, 0 to 10 scale (0 no effect, 10 complete control)
structure (smiles),measurement,setting,value
CC(C)N(C(=O)n1oc(=O)n(CC(=O)C2CC2)c1=O)c1ccccc1 [Compound 489],Blackgrass plant response rating,blackgrass; [1],6
same,Blackgrass plant response rating,blackgrass; [2],8
same,"Plant response rating, Blackgrass",blackgrass; [3],8
same,"Plant response rating, Blackgrass",blackgrass; [4],7
same,Blackgrass plant response rating,blackgrass; [5],8
same,Blackgrass plant response rating,blackgrass; [6],9
same,Blackgrass plant response rating,blackgrass; [7],10
same,Blackgrass plant response rating,blackgrass; [8],1
same,Nutsedge plant response rating,purple nutsedge; [1],0
same,"Plant response rating, Nutsedge",purple nutsedge; [3],0
same,"Plant response rating, Nutsedge",purple nutsedge; [4],0
same,Nutsedge plant response rating,purple nutsedge; [5],0
same,Nutsedge plant response rating,purple nutsedge; [7],0
same,Nutsedge plant response rating,purple nutsedge; [8],0
same,Sugarbeets plant response rating,sugar beet; [1],0
same,"Plant response rating, Sugarbeets",sugar beet; [3],0
same,"Plant response rating, Sugarbeets",sugar beet; [4],0
same,Sugarbeets plant response rating,sugar beet; [5],2
same,Sugarbeets plant response rating,sugar beet; [7],5
same,Sugarbeets plant response rating,sugar beet; [8],0
same,Velvetleaf plant response rating,velvetleaf; [1],0
same,"Plant response rating, Velvetleaf",velvetleaf; [3],5
same,"Plant response rating, Velvetleaf",velvetleaf; [4],2
same,Velvetleaf plant response rating,velvetleaf; [5],2
same,Velvetleaf plant response rating,velvetleaf; [7],7
same,Velvetleaf plant response rating,velvetleaf; [8],0
same,"Plant response rating, S. Flatsedge (0 to 10 scale, 0 is no effect, 10 is complete control)",smallflower flatsedge; [9],0
same,"S. Flatsedge plant response rating (0 to 10 scale, 0 is no effect, 10 is complete control)",smallflower flatsedge; [10],0
same,S. Flatsedge plant response rating,smallflower flatsedge; [11],0
same,S. Flatsedge plant response rating,smallflower flatsedge; [12],0
same,Redroot pigweed plant response rating,pigweed; [1],0
same,"Plant response rating, Redroot pigweed",pigweed; [3],2
same,"Plant response rating, Redroot pigweed",pigweed; [4],0
same,Redroot pigweed plant response rating,pigweed; [7],10
same,Redroot pigweed plant response rating,pigweed; [8],0
same,Wheat plant response rating,wheat; [1],0
same,"Plant response rating, Wheat",wheat; [3],2
same,"Plant response rating, Wheat",wheat; [4],0
same,Wheat plant response rating,wheat; [5],0
same,Wheat plant response rating,wheat; [7],6
same,Wheat plant response rating,wheat; [8],0
same,Cocklebur plant response rating,cocklebur; [1],0
same,Cocklebur plant response rating,cocklebur; [2],0
same,"Plant response rating, Cocklebur",cocklebur; [3],0
same,"Plant response rating, Cocklebur",cocklebur; [4],0
same,Cocklebur plant response rating,cocklebur; [5],0
same,Cocklebur plant response rating,cocklebur; [6],0
same,Cocklebur plant response rating,cocklebur; [7],0
same,Cocklebur plant response rating,cocklebur; [8],0
same,Crabgrass plant response rating,crabgrass; [1],5
same,Crabgrass plant response rating,crabgrass; [2],8
same,"Plant response rating, Crabgrass",crabgrass; [3],9
same,"Plant response rating, Crabgrass",crabgrass; [4],9
same,Crabgrass plant response rating,crabgrass; [5],10
same,Crabgrass plant response rating,crabgrass; [7],10
same,Crabgrass plant response rating,crabgrass; [8],2
same,Soybean plant response rating,soybean; [1],5
same,"Plant response rating, Soybean",soybean; [3],7
same,"Plant response rating, Soybean",soybean; [4],0
same,Soybean plant response rating,soybean; [5],1
same,Soybean plant response rating,soybean; [7],3
same,Soybean plant response rating,soybean; [8],3
same,"Plant response rating, Rice (0 to 10 scale, 0 is no effect, 10 is complete control)",rice; [9],0
same,"Rice plant response rating (0 to 10 scale, 0 is no effect, 10 is complete control)",rice; [10],0
same,Rice plant response rating,rice; [11],0
same,Rice plant response rating,rice; [12],0
same,Bedstraw plant response rating,"bedstraw; Rate 125 g/ha, scale 0 to 10, 0 is no effect, 10 is complete control",3
same,Bedstraw plant response rating,"bedstraw; Rate 250 g/ha, scale 0 to 10",5
same,Bedstraw plant response rating,"bedstraw; Rate 62 g/ha, scale 0 to 10 (0 no effect, 10 complete control)",0
same,Wild oats plant response rating,wild oat; [1],1
same,"Plant response rating, Wild oats",wild oat; [3],3
same,"Plant response rating, Wild oats",wild oat; [4],0
same,Wild oats plant response rating,wild oat; [5],4
same,Wild oats plant response rating,wild oat; [7],9
same,Wild oats plant response rating,wild oat; [8],0
same,Giant foxtail plant response rating,giant foxtail; [1],8
same,"Plant response rating, Giant foxtail",giant foxtail; [3],9
same,"Plant response rating, Giant foxtail",giant foxtail; [4],9
same,Giant foxtail plant response rating,giant foxtail; [5],10
same,Giant foxtail plant response rating,giant foxtail; [7],10
same,Giant foxtail plant response rating,giant foxtail; [8],2
same,Rape plant response rating,rape; [1],0
same,"Plant response rating, Rape",rape; [3],0
same,"Plant response rating, Rape",rape; [4],0
same,Rape plant response rating,rape; [5],0
same,Rape plant response rating,rape; [7],9
same,Rape plant response rating,rape; [8],0
same,"Plant response rating, Ducksalad (0 to 10 scale, 0 is no effect, 10 is complete control)",duck salad; [9],0
same,"Ducksalad plant response rating (0 to 10 scale, 0 is no effect, 10 is complete control)",duck salad; [10],0
same,Ducksalad plant response rating,duck salad; [11],0
same,Ducksalad plant response rating,duck salad; [12],0
same,Corn plant response rating,corn; [1],0
same,Corn plant response rating,corn; [2],0
same,"Plant response rating, Corn",corn; [3],4
same,"Plant response rating, Corn",corn; [4],0
same,Corn plant response rating,corn; [5],0
same,Corn plant response rating,corn; [7],5
same,Corn plant response rating,corn; [8],0
same,Morningglory plant response rating,morningglory; [1],7
same,"Plant response rating, Morningglory",morningglory; [3],10
same,"Plant response rating, Morningglory",morningglory; [4],0
same,Morningglory plant response rating,morningglory; [5],0
same,Morningglory plant response rating,morningglory; [7],1
same,Morningglory plant response rating,morningglory; [8],2
same,"Plant response rating, Barnyardgrass (0 to 10 scale, 0 is no effect, 10 is complete control)",bamyardgrass; [9],0
same,"Barnyardgrass plant response rating (0 to 10 scale, 0 is no effect, 10 is complete control)",bamyardgrass; [10],0
same,Barnyardgrass plant response rating,bamyardgrass; [11],0
same,Barnyardgrass plant response rating,bamyardgrass; [12],0
same,B. signalgrass plant response rating,surinam grass; [1],2
same,B. signalgrass plant response rating,"surinam grass; Postemergence, Rate 250 g/ha, scale 0 to 10, 0 no effect, 10 complete control",6
same,"Plant response rating, B. signalgrass",surinam grass; [3],8
same,"Plant response rating, B. signalgrass",surinam grass; [4],6
same,B. signalgrass plant response rating,surinam grass; [5],7
same,B. signalgrass plant response rating,surinam grass; [6],8
same,B. signalgrass plant response rating,surinam grass; [7],9
same,B. signalgrass plant response rating,surinam grass; [8],1
